# Source: patent US20240294572A1, “Antimicrobial Peptides” (priority 2021, published 2024)
# Residues, ends and D or L forms follow the SMILES beside them. No end group written: not given here. *: point of attachment. Myristoyl = CCCCCCCCCCCCCC(=O)*; Lauroyl = CCCCCCCCCCCC(=O)*; Decanoyl = CCCCCCCCCC(=O)*; Octanoyl = CCCCCCCC(=O)*; Hexanoyl = CCCCCC(=O)*
# Legend:
# Type in all cases: cell-based
# E. coli ATCC 25922 = test system: E. coli ATCC 25922
# Description: (§1) The antibacterial activity of peptides was evaluated using a standard broth microdilution protocol (Clinical Laboratories Standards Institute (CLSI): M07-A10. Methods for Dilution Antimicrobial Susceptibility Tests for Bacteria that grow aerobically; Approved Standard, Tenth Edition, 2015) with minor modifications as described (Mishra, et al. (2019) Proc. Natl. Acad. Sci., 116:13517-13522). In brief, peptides (10 μL per well) with 2-fold dilutions were made in 96-well polystyrene microplates. Subsequently, the logarithmic phase bacterial cultures (i.e., optical density at 600 nm ˜0.5) were diluted to 0.001 OD and aliquoted to 90 μL per well. The plates were incubated overnight at 37°° C. Bacterial controls were treated with water, and the wells containing only the TSB media were used as blank. Positive controls included the parent peptide LL-37 as well as KR12. Post incubation, the plates were read at 630 nm using ChroMate® 4300 Microplate Reader (Awareness Technology, FL).
# (§2) To study the influence of medium conditions on the antimicrobial activity of peptides against S. aureus USA300, different pH, sodium chloride (NaCl), human sera were included into the antibacterial assays. Control experiments in TSB without any additions (pH 7.4) were set up in the same manner. In addition, antimicrobial activities of human LL-37, KR12, and C10-KR8d were compared in 10%, 50%, and 100% TSB as well as in TSB and MHB using E. coli ATCC 25922 and S. aureus USA300 LAC.
# S. aureus USA300 LAC = conditions: USA300
# Description: as §1, §2
# [1] = test system: Klebsiella pneumonia ATCC 13883; experiment: Antibacterial broth microdilution MIC
# Description: as §1
# [2] = test system: human red blood cells (hRBCs); conditions: red cells of human, 1 h
# Description: Hemolytic assays of peptides were performed as described (Lakshmaiah, et al. (2020) Proc. Natl. Acad. Sci., 117:19446-19454). Briefly, human red blood cells (hRBCs) were obtained from UNMC Blood Bank. The cells were washed 3× with isotonic saline (0.9% NaCl) and diluted to 2% (v/v). Peptides at various concentrations were added to the 2% blood cells and incubated at 37° C. for 1 hour. Post-incubation, the plates were spun at 2000 rpm for 10 minutes; aliquots of the supernatant were carefully transferred to a fresh 96-well microplate. The amount of cells lysed is proportional to the hemoglobin released and was measured at 545 nm using a ChroMate® microplate reader (Awareness Technology, FL). The percent lysis was calculated by assuming 100% release when human blood cells were treated with 1% Triton™ X-100, and 0% release when incubated with PBS. The peptide concentration that caused 50% lysis of hRBCs is defined as HC50. The cell selectivity index (CSI) was calculated as the ratio between HC50 and the MIC of the corresponding peptide against MRSA.
# P. aeruginosa PAO1 = test system: P. aeruginosa PAO1
# Description: as §1
Compound,MIC (μM) EC (E. coli ATCC 25922) [µM],MIC (μM) SA (S. aureus USA300 LAC) [µM],MIC (μM) KP [1] [µM],HC50 [2] [µM],MIC (μM) PA (P. aeruginosa PAO1) [µM],"Minimal inhibitory concentration against E. coli, 10% TSB (E. coli ATCC 25922) [µM]","Minimal inhibitory concentration against E. coli, 50% TSB (E. coli ATCC 25922) [µM]","Minimal inhibitory concentration against E. coli, 100% MHB (E. coli ATCC 25922) [µM]","Minimal inhibitory concentration against S. aureus, 10% TSB (S. aureus USA300 LAC) [µM]","Minimal inhibitory concentration against S. aureus, 50% TSB (S. aureus USA300 LAC) [µM]","Minimal inhibitory concentration against S. aureus, 100% MHB (S. aureus USA300 LAC) [µM]","Minimal inhibitory concentration against S. aureus, 100% TSB (S. aureus USA300 LAC) [µM]"
CCCCCCCCCCCCCC(=O)N[C@@H](CCCCN)C(=O)N[C@@H](CCCNC(=N)N)C(=O)N[C@H](C(=O)N[C@@H](Cc1c[nH]c2ccccc12)C(=O)N[C@@H](CCC(N)=O)C(=O)N[C@@H](CCCNC(=N)N)C(=O)N[C@H](C(=O)N[C@@H](CCCCN)C(N)=O)[C@@H](C)CC)[C@@H](C)CC [Peptide C14-KR8] (Myristoyl-KRIWQRIK-NH2),12.5,<1.5,>50,<25,6.2,,,,,,,
CCCCCCCCCCCCCC(=O)N[C@@H](CCCCN)C(=O)N[C@@H](CCCNC(=N)N)C(=O)N[C@H](C(=O)N[C@@H](Cc1c[nH]c2ccccc12)C(=O)N[C@@H](CCC(N)=O)C(=O)N[C@@H](CCCNC(=N)N)C(=O)N[C@H](C(=O)N[C@@H](CCCCN)C(=O)N[C@@H](CC(=O)O)C(=O)N[C@@H](Cc1ccccc1)C(N)=O)[C@@H](C)CC)[C@@H](C)CC [Peptide C14-KR10] (Myristoyl-KRIWQRIKDF-NH2),50,3.1,6.2,<25,12.5,,,,,,,
CCCCCCCC(=O)N[C@@H](CCCCN)C(=O)N[C@@H](CCCNC(=N)N)C(=O)N[C@H](C(=O)N[C@@H](Cc1c[nH]c2ccccc12)C(=O)N[C@@H](CCC(N)=O)C(=O)N[C@@H](CCCNC(=N)N)C(N)=O)[C@@H](C)CC [Peptide C8-KR6] (Octanoyl-KRIWQR-NH2),50,>50,>50,>200,>50,,,,,,,
CCCCCCCCCCCCCC(=O)N[C@@H](CCCCN)C(=O)N[C@@H](CCCNC(=N)N)C(=O)N[C@H](C(=O)N[C@@H](Cc1c[nH]c2ccccc12)C(=O)N[C@@H](CCC(N)=O)C(=O)N[C@@H](CCCNC(=N)N)C(N)=O)[C@@H](C)CC [Peptide C14-KR6] (Myristoyl-KRIWQR-NH2),12.5,3.1,>50,<25,6.2,,,,,,,
CCCCCCCCCCCC(=O)N[C@@H](CCCCN)C(=O)N[C@@H](CCCNC(=N)N)C(=O)N[C@H](C(=O)N[C@@H](Cc1c[nH]c2ccccc12)C(=O)N[C@@H](CCC(N)=O)C(=O)N[C@@H](CCCNC(=N)N)C(=O)N[C@H](C(=O)N[C@@H](CCCCN)C(N)=O)[C@@H](C)CC)[C@@H](C)CC [Peptide C12-KR8] (Lauroyl-KRIWQRIK-NH2),6.2,1.5,>50,35,3.1,,,,,,,
CCCCCC(=O)N[C@@H](CCCCN)C(=O)N[C@@H](CCCNC(=N)N)C(=O)N[C@H](C(=O)N[C@@H](Cc1c[nH]c2ccccc12)C(=O)N[C@@H](CCC(N)=O)C(=O)N[C@@H](CCCNC(=N)N)C(=O)N[C@H](C(=O)N[C@@H](CCCCN)C(=O)N[C@@H](CC(=O)O)C(=O)N[C@@H](Cc1ccccc1)C(=O)N[C@@H](CC(C)C)C(=O)N[C@@H](CCCNC(=N)N)C(N)=O)[C@@H](C)CC)[C@@H](C)CC [Peptide C6-KR12] (Hexanoyl-KRIWQRIKDFLR-NH2),3.1,<1.5,6.2,25,12.5,,,,,,,
"KRIVQRIKDFLR-NH2 [KR12, reference compound]",50,,>50,>340,25,1.6,3.1,>50,6.2,>50,>50,>50
CCCCCCCC(=O)N[C@@H](CCCCN)C(=O)N[C@@H](CCCNC(=N)N)C(=O)N[C@H](C(=O)N[C@@H](Cc1c[nH]c2ccccc12)C(N)=O)[C@@H](C)CC [Peptide C8-KR4] (Octanoyl-KRIW-NH2),>50,>50,>50,>200,>50,,,,,,,
CCCCCCCCCC(=O)N[C@@H](CCCCN)C(=O)N[C@@H](CCCNC(=N)N)C(=O)N[C@H](C(=O)N[C@@H](Cc1c[nH]c2ccccc12)C(N)=O)[C@@H](C)CC [Peptide C10-KR4] (Decanoyl-KRIW-NH2),50,12.5,>50,150,12.5,,,,,,,
CCCCCCCCCCCC(=O)N[C@@H](CCCCN)C(=O)N[C@@H](CCCNC(=N)N)C(=O)N[C@H](C(=O)N[C@@H](Cc1c[nH]c2ccccc12)C(=O)N[C@@H](CCC(N)=O)C(=O)N[C@@H](CCCNC(=N)N)C(=O)N[C@H](C(=O)N[C@@H](CCCCN)C(=O)N[C@@H](CC(=O)O)C(=O)N[C@@H](Cc1ccccc1)C(N)=O)[C@@H](C)CC)[C@@H](C)CC [Peptide C12-KR10] (Lauroyl-KRIWQRIKDF-NH2),6.2,1.5,3.1,<25,,,,,,,,
CCCCCCCCCCCC(=O)N[C@@H](CCCCN)C(=O)N[C@@H](CCCNC(=N)N)C(=O)N[C@H](C(=O)N[C@@H](Cc1c[nH]c2ccccc12)C(=O)N[C@@H](CCC(N)=O)C(=O)N[C@@H](CCCNC(=N)N)C(N)=O)[C@@H](C)CC [Peptide C12-KR6] (Lauroyl-KRIWQR-NH2),12.5,3.1,>50,75,6.2,,,,,,,
CCCCCCCCCCCC(=O)N[C@@H](CCCCN)C(=O)N[C@@H](CCCNC(=N)N)C(=O)N[C@H](C(=O)N[C@@H](Cc1c[nH]c2ccccc12)C(=O)N[C@@H](CCC(N)=O)C(=O)N[C@@H](CCCNC(=N)N)C(=O)N[C@H](C(=O)N[C@@H](CCCCN)C(=O)N[C@@H](CC(=O)O)C(=O)N[C@@H](Cc1ccccc1)C(=O)N[C@@H](CC(C)C)C(=O)N[C@@H](CCCNC(=N)N)C(N)=O)[C@@H](C)CC)[C@@H](C)CC [Peptide C12-KR12] (Lauroyl-KRIWQRIKDFLR-NH2),>50,6.2,12.5,<25,>50,,,,,,,
CCCCCC(=O)N[C@@H](CCCCN)C(=O)N[C@@H](CCCNC(=N)N)C(=O)N[C@H](C(=O)N[C@@H](Cc1c[nH]c2ccccc12)C(=O)N[C@@H](CCC(N)=O)C(=O)N[C@@H](CCCNC(=N)N)C(=O)N[C@H](C(=O)N[C@@H](CCCCN)C(N)=O)[C@@H](C)CC)[C@@H](C)CC [Peptide C6-KR8] (Hexanoyl-KRIWQRIK-NH2),>50,>50,>50,>200,>50,,,,,,,
CCCCCCCCCC(=O)N[C@@H](CCCCN)C(=O)N[C@@H](CCCNC(=N)N)C(=O)N[C@H](C(=O)N[C@@H](Cc1c[nH]c2ccccc12)C(=O)N[C@@H](CCC(N)=O)C(=O)N[C@@H](CCCNC(=N)N)C(N)=O)[C@@H](C)CC [Peptide C10-KR6] (Decanoyl-KRIWQR-NH2),50,12.5,>50,>340,25,,,,,,,
CCCCCCCCCC(=O)N[C@@H](CCCCN)C(=O)N[C@@H](CCCNC(=N)N)C(=O)N[C@H](C(=O)N[C@@H](Cc1c[nH]c2ccccc12)C(=O)N[C@@H](CCC(N)=O)C(=O)N[C@@H](CCCNC(=N)N)C(=O)N[C@H](C(=O)N[C@@H](CCCCN)C(=O)N[C@@H](CC(=O)O)C(=O)N[C@@H](Cc1ccccc1)C(N)=O)[C@@H](C)CC)[C@@H](C)CC [Peptide C10-KR10] (Decanoyl-KRIWQRIKDF-NH2),3.1,1.5,6.2,50,,,,,,,,
